The values below come from ChEMBL document CHEMBL5465560, “Selectivity Literature for EUbOPEN Chemogenomic Library” (2024).

The target of assay [1] is T1, MAP kinase-activated protein kinase 5 (Homo sapiens) (UniProt Q8IW41).
T1 sequence (whole entry): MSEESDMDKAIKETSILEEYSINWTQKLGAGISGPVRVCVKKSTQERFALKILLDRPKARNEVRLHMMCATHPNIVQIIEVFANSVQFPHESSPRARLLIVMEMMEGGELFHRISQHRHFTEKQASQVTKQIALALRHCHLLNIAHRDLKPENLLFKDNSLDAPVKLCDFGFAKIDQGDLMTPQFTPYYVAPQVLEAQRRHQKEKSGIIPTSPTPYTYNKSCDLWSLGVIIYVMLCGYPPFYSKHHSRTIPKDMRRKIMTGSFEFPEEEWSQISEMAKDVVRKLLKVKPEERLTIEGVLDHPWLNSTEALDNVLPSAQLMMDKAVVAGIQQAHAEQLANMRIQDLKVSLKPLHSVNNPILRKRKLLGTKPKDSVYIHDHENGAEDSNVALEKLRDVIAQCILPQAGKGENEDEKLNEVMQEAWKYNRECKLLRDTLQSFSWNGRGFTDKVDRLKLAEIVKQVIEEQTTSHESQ
Kind of assay: Selectivity interaction (Upstate Kinase Profiler service (Millipore)) EUB0000056c MAPKAPK5. The note with it: at 1 µM.

In assay [2] the target is Glycogen synthase kinase-3 beta (Homo sapiens, UniProt P49841). Kind of assay: Selectivity interaction (Kinase panel (DSF assay)) EUB0001558a GSK3B. Background: Differential scanning fluorimetry follows unfolding on heating by fluorescence.
Chain of Glycogen synthase kinase-3 beta (P49841 whole entry, looked up): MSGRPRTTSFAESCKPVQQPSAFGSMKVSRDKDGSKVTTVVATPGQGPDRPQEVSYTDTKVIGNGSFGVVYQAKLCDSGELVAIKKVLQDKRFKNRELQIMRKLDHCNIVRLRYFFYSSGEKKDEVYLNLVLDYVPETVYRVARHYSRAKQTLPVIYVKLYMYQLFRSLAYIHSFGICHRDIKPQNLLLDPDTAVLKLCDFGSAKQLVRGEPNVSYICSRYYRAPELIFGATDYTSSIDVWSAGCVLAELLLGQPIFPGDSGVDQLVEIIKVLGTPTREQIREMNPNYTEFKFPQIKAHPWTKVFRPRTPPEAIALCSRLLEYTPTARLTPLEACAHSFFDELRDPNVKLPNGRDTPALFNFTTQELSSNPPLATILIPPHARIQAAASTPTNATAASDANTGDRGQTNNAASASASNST
Assay [3] addresses Macrophage colony-stimulating factor 1 receptor (Homo sapiens) (UniProt P07333). Kind of assay: Selectivity interaction (Ambit KINOMEscan and KiNATiv profiling in Jurkat cells) EUB0000090b CSF1R. It is filed as cell-based. Conditions: at 1 µM.
The subject of assay [4] is Fibroblast growth factor receptor 3 (Homo sapiens), P22607 [G697C]. Nature of the assay: (§1) Selectivity interaction (Ambit KINOMEscan and KiNATiv profiling in Jurkat cells) EUB0000090b FGFR3. It is filed as cell-based. The note with it: at 1 µM.
Assay [5] has as its target Fibroblast growth factor receptor 3 (Homo sapiens, UniProt P22607). The assay is described as §1. It is filed as cell-based. The note with it: at 1 µM.
Assay [6] has as its target Mitogen-activated protein kinase kinase kinase 10 (Homo sapiens) (UniProt Q02779). Nature of the assay: Selectivity interaction (Ambit KINOMEscan and KiNATiv profiling in Jurkat cells) EUB0000090b MAP3K10. It is filed as cell-based. Conditions: at 1 µM.
For assay [7], the target named is Phosphatidylinositol 4-kinase beta (Homo sapiens, UniProt Q9UBF8). Nature of the assay: Selectivity interaction (KinomeScan (DiscoverX)) EUB0000092b PI4KB. Conditions: at 10 µM.
The target of assay [8] is Vascular endothelial growth factor receptor 3 (Homo sapiens, UniProt P35916). Nature of the assay: Selectivity interaction (KinomeScan (DiscoverX)) EUB0000695a FLT4. The note with it: at 100 nM.
Chain of Vascular endothelial growth factor receptor 3 (P35916 whole entry): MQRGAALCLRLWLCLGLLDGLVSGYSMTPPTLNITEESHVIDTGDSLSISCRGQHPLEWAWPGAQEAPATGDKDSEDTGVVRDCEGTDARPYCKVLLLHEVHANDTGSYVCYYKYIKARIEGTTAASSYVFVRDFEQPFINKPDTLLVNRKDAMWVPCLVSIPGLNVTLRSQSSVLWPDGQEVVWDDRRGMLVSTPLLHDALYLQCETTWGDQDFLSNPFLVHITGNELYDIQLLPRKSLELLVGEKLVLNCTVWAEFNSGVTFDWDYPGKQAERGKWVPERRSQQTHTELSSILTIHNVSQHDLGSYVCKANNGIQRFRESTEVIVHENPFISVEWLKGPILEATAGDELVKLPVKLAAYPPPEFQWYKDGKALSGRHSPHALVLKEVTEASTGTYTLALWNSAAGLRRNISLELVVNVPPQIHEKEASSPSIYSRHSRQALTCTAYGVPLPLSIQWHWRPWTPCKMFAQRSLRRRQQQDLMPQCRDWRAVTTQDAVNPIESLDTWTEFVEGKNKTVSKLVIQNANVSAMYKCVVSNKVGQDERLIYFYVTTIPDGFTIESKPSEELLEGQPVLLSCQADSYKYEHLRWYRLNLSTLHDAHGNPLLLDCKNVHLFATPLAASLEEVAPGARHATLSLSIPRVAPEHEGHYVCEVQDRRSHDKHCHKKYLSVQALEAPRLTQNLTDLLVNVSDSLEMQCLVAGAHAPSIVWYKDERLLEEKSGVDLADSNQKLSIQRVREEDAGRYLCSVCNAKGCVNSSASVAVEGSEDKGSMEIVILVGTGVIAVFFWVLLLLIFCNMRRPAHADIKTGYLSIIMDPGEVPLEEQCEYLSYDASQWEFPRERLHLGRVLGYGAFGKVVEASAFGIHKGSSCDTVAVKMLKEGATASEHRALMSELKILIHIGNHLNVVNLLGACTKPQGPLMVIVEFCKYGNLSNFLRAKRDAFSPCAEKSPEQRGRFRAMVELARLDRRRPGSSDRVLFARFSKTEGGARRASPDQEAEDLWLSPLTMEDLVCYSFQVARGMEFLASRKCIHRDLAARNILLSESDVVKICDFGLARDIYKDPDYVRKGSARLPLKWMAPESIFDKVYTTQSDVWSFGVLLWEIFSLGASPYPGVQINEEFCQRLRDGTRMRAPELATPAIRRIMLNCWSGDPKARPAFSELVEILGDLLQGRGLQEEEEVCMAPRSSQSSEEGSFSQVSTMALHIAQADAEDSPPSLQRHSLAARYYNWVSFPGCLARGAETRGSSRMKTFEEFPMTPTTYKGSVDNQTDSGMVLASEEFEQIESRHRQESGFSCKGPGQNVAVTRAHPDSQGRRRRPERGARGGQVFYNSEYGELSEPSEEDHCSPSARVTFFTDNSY
In the next assay the target is Adenosine receptor A2a (Homo sapiens, UniProt P29274). Kind of assay: Selectivity interaction (Eurofins CEREP Diversity Profile (receptors and ion channels)) EUB0000279b ADORA2A. The note with it: at 10 µM.
Assay [9] has as its system Proto-oncogene tyrosine-protein kinase receptor Ret (Homo sapiens), P07949 [M918T]. Kind of assay: (§2) Selectivity interaction (KinomeScan (DiscoverX)) EUB0000045b RET.
For assay [10], the system named is Proto-oncogene tyrosine-protein kinase receptor Ret (Homo sapiens), P07949 [V804L]. Described as §2.
Chain of Proto-oncogene tyrosine-protein kinase receptor Ret (Homo sapiens), P07949 [V804L] (P07949 whole entry V804L): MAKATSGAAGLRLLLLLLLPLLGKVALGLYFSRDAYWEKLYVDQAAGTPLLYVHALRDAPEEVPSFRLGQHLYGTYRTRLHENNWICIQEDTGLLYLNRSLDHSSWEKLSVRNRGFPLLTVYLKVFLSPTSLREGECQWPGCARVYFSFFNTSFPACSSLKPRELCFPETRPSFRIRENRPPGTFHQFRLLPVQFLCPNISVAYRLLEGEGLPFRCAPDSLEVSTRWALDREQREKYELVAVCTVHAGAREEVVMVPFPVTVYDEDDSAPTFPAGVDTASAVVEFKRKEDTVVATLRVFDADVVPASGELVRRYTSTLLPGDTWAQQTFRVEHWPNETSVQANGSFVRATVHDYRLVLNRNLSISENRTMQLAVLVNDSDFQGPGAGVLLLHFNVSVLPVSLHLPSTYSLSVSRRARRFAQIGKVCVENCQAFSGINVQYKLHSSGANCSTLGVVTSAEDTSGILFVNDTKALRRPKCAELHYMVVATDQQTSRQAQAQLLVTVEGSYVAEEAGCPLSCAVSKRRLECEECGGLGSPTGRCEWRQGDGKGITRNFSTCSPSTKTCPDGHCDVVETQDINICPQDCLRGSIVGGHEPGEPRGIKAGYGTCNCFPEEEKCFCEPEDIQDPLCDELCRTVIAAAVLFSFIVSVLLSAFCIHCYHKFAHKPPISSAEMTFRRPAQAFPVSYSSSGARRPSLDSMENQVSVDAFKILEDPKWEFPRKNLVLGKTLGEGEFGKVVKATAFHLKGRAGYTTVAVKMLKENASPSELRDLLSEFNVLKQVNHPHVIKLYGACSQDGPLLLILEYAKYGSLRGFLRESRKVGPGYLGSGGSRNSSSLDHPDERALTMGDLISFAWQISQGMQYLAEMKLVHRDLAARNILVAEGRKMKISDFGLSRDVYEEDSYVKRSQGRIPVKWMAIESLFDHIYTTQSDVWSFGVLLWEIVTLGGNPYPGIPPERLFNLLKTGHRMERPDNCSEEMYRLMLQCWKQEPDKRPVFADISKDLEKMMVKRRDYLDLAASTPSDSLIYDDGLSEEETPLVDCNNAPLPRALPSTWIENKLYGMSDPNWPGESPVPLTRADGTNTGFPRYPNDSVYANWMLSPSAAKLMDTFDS
Assay [11] concerns Proto-oncogene tyrosine-protein kinase receptor Ret (Homo sapiens), P07949 [V804M]. Described as §2.
Chain of Proto-oncogene tyrosine-protein kinase receptor Ret (Homo sapiens), P07949 [V804M] (P07949 whole entry V804M): as the sequence (P07949 whole entry V804L) above, with L804M counted along it
The target of assay [12] is Proto-oncogene tyrosine-protein kinase receptor Ret (Homo sapiens, UniProt P07949). Described as §2.
Chain of Proto-oncogene tyrosine-protein kinase receptor Ret (P07949 whole entry): as the sequence (P07949 whole entry V804L) above, with L804V counted along it
Assay [13] has as its target eIF-2-alpha kinase GCN2 (Homo sapiens) (UniProt Q9P2K8). Kind of assay: Selectivity interaction (ActivX KiNativ screen (kinase selectivity in THP-1 cell lysates)) EUB0000639a EIF2AK4. It is filed as subcellular. The note with it: lysate, at 5 µM.
For assay [14], the target named is T2, Serine/threonine-protein kinase D3 (Homo sapiens) (UniProt O94806).
T2 sequence (whole entry): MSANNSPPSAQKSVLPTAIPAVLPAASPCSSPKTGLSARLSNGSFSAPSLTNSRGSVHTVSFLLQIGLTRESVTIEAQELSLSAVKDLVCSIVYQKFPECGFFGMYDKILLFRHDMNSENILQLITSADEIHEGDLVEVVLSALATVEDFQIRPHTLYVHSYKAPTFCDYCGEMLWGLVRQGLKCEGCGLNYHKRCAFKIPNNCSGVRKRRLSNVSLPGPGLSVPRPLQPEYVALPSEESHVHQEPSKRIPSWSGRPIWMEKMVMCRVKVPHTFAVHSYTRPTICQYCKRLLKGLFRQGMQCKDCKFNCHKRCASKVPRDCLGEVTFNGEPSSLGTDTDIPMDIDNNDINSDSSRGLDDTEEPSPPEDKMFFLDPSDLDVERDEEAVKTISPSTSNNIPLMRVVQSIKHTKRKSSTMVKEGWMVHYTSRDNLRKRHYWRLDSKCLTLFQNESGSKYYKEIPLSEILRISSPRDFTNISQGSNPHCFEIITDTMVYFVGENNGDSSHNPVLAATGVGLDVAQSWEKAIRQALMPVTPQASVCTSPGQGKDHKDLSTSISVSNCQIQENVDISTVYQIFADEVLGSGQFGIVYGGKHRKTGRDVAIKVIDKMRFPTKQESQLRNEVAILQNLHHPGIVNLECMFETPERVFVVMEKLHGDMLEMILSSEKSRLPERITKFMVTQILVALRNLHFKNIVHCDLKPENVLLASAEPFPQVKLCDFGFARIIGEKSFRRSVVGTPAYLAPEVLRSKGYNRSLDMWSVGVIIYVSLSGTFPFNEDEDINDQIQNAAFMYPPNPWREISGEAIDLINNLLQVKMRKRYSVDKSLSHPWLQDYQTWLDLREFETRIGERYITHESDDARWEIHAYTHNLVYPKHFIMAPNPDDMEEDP
Kind of assay: Selectivity interaction (ActivX KiNativ screen (kinase selectivity in THP-1 cell lysates)) EUB0000639a PRKD3. It is filed as subcellular. Conditions: lysate, at 0.2 µM.

In assay [15] the target is Mast/stem cell growth factor receptor Kit (Homo sapiens, UniProt P10721).
Chain of Mast/stem cell growth factor receptor Kit (P10721 whole entry): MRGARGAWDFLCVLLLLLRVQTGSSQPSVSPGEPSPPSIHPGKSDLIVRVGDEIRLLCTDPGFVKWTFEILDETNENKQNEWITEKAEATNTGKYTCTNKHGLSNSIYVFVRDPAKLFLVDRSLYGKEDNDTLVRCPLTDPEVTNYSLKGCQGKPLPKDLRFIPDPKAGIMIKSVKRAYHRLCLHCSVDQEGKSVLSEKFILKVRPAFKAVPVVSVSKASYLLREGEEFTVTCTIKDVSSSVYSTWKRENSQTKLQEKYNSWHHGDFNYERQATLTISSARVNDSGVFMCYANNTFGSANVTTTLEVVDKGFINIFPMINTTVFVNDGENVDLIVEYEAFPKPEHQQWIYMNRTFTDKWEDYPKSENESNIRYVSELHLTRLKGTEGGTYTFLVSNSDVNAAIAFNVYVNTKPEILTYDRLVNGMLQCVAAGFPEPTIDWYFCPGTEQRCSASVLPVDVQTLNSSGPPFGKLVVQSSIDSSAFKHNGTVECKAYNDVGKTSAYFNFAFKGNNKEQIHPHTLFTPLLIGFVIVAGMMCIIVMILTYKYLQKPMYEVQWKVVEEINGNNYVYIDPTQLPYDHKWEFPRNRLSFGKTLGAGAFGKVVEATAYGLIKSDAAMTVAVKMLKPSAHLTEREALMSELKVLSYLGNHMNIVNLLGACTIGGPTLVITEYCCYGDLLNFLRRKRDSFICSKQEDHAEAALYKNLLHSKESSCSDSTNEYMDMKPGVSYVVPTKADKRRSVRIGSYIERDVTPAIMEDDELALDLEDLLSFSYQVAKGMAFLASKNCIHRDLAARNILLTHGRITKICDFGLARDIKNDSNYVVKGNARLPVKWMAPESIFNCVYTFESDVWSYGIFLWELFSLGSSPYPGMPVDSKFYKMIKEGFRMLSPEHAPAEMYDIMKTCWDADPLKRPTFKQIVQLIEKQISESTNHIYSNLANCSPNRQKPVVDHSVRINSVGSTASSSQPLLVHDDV
For assay [16], the target named is Rho-associated protein kinase 1 (Homo sapiens) (UniProt Q13464). Nature of the assay: Selectivity interaction (KinomeScan (DiscoverX)) EUB0000595a ROCK1. The note with it: at 10 µM.

Chain of Proto-oncogene tyrosine-protein kinase receptor Ret (Homo sapiens), P07949 [M918T] (P07949 whole entry M918T): as the sequence (P07949 whole entry V804L) above, with L804V, M918T counted along it
Chain of Mitogen-activated protein kinase kinase kinase 10 (Homo sapiens) (Q02779 whole entry, looked up): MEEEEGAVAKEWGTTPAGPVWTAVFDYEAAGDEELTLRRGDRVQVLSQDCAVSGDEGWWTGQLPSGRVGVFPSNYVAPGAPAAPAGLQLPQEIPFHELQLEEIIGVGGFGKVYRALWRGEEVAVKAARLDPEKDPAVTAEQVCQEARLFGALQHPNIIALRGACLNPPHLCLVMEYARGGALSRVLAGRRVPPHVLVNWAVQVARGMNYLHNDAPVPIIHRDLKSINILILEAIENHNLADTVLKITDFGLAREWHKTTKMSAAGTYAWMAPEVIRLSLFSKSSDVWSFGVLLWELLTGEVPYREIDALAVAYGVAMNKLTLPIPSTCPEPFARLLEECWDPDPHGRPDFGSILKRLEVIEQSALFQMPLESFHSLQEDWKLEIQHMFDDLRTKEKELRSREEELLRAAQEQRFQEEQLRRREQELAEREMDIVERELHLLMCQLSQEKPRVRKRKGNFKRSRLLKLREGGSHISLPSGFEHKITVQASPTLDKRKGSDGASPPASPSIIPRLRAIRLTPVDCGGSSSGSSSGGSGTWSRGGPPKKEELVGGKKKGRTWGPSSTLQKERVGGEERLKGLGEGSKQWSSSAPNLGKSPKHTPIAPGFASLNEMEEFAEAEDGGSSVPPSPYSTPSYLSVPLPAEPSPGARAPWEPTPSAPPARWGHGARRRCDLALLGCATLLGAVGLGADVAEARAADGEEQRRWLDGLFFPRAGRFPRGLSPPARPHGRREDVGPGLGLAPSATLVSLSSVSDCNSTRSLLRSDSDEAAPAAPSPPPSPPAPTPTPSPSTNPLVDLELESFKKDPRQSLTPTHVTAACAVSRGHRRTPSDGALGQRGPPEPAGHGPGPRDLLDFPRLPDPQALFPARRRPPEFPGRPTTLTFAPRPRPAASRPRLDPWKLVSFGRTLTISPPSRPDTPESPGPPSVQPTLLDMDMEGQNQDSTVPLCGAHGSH

With `Cc1ccc(-c2ccc3c(ccc4sc5c(c43)NC[C@@H](C)NC5=O)n2)cn1`, in [1], the % of inhibition was 99%.

In the case of `CC(C)(O)[C@H](F)CN1Cc2cc(NC(=O)c3cnn4cccnc34)c(N3CCOCC3)cc2C1=O`, the dTM in assay [2] was found to be 0.9 K.

For the compound `CN(C)C/C=C/C(=O)Nc1ccc(C(=O)N2CCCC(Nc3ncc(Cl)c(-c4c[nH]c5ccccc45)n3)C2)cc1` (stereo unspecified), the % of control in assay [3] was found to be 86%; in [4], 72%; in assay [5], 92%; in assay [6], 100%.

Compound `CCC(=O)N1CCN(c2ccc(-n3c(=O)ccc4cnc5ccc(-c6cnc7ccccc7c6)cc5c43)cc2C(F)(F)F)CC1` yielded a % of control in assay [7] of 96%.

For the compound `Cc1cc(F)c(C(=O)Nc2cccc(-c3nncn3C(C)C)n2)cc1-n1cnc(C2CC2)c1`, the % of control in assay [8] is 100%.

Regarding `CC(=O)c1cc(-c2ccccc2OCC2CC2)c2ncccn12`, the % of control at Adenosine receptor A2a turned out to be 80%.

Regarding `C=CC(=O)Nc1cc(-n2c(=O)ccc3cnc4ccc(-c5ccc(NS(C)(=O)=O)cc5)cc4c32)ccc1C`, the % of control is 11% in assay [9] (at 1 µM); 74% in assay [9] (at 10 µM); 79% in assay [10] (at 1 µM); 100% in assay [10] (at 10 µM); 85% in assay [11] (at 1 µM); 100% in assay [11] (at 10 µM). For the same compound, the % of control in assay [12] (at 1 µM) amounted to 88%; in assay [12] (at 10 µM), 96%.

Turning to `CC[C@@H]1[C@H](F)C(=O)N[C@@H]1COc1nccc2cc(C(N)=O)c(OC)cc12` [ZIMLOVISERTIB], the % of inhibition is 19.4% in assay [13] and -4.6% in assay [14].

As for `CCc1cccc(CC)c1NC(=O)c1nn(C)c2c1CCc1cnc(Nc3ccc(C(=O)NC4CCN(C)CC4)cc3OC(F)(F)F)nc1-2`, in assay [15], the half-maximal inhibitory concentration (IC50) is over 10 µM.

On to `COCC(=O)NC/C=C/c1ccc2ncnc(Nc3ccc(Oc4ccc(C)nc4)c(C)c3)c2c1` [CP-724714], for which, in [16], the % of control came out at 100%.

The IC50 is the concentration needed to halve the response being measured. Low values mean higher potency, high ones lower potency.
